The values that follow come from patent publication US9540354B2, “Diamide inhibitors of cytochrome P450” (SEQUOIA PHARMACEUTICALS, INC., priority 2008, dated 2017).

Turning to `Cc1cc(CC(C(=O)NCc2ccc3occc3c2)C(=O)N(CC(C)C)CC(C)C)n(C)n1` (stereo not shown) [Cmpd. 9], the melting point is 85.5 to 86 °C.

For orientation: melting point means the temperature of the solid-liquid transition.
